Assay results published in patent US10155021B2, “Antimicrobial 4-oxoquinolizines” (Emergent Product Development Gaithersburg Inc., priority 2011, dated 2018).
In brackets after ≈: the same amount, converted by molar mass. Where two headings read alike, the source gives them in different places.

What was measured:
A. baumannii A472 [1] = assay: Preliminary MBC without and with sub-inhibitory polymyxin B (Example 4); assay type: cell-based, Acinetobacter baumannii; conditions: Acinetobacter baumannii, A472, A. baumannii A472, without polymyxin B, 1st experiment, read-out: MBC without PB
[2] = system: resistant strains of A. baumannii and one strain of Acinetobacter sp.; assay: MIC without and with sub-inhibitory polymyxin B, whole panel / MIC ranges (Example 4; also strains not listed separately); assay type: cell-based
A. baumannii A473 [3] = assay: Preliminary MBC without and with sub-inhibitory polymyxin B (Example 4); assay type: cell-based, Acinetobacter baumannii; conditions: Acinetobacter baumannii, A473, A. baumannii A473, without polymyxin B, 1st experiment, read-out: MBC without PB
A. baumannii J2 [4] = assay: as above; assay type: cell-based, Acinetobacter baumannii; conditions: Acinetobacter baumannii, J2, A. baumannii J2; without polymyxin B; preliminary MBC; 1st experiment; read-out: MBC without PB
A. baumannii A489 [5] = assay: as above; assay type: cell-based, Acinetobacter baumannii; conditions: Acinetobacter baumannii, A489, A. baumannii A489, without polymyxin B, 1st experiment, read-out: MBC without PB
A. baumannii A489 [6] = assay: MIC without and with sub-inhibitory polymyxin B (Example 4); assay type: cell-based, Acinetobacter baumannii; conditions: Acinetobacter baumannii, A489, A. baumannii A489; without polymyxin B; 1st experiment; read-out: MIC without PB
A. baumannii A401 [7] = assay: as above; assay type: cell-based, Acinetobacter baumannii; conditions: Acinetobacter baumannii, A401, A baumannii A 401; without polymyxin B; 1st experiment; read-out: MIC without PB
[8] = system: Acinetobacter sp. (H064200250); assay: as above; assay type: cell-based; conditions: Acinetobacter, without polymyxin B, read-out: MIC without PB
A. baumannii A401 [9] = assay: Preliminary MBC without and with sub-inhibitory polymyxin B (Example 4); assay type: cell-based, Acinetobacter baumannii; conditions: Acinetobacter baumannii, A401, A baumannii A 401; without polymyxin B; preliminary MBC; 1st experiment; read-out: MBC without PB
A. baumannii A329 [10] = assay: MIC without and with sub-inhibitory polymyxin B (Example 4); assay type: cell-based, Acinetobacter baumannii
A. baumannii A387 [11] = assay: as above; assay type: cell-based, Acinetobacter baumannii
[12] = system: Acinetobacter sp. (H064200250); assay: Preliminary MBC without and with sub-inhibitory polymyxin B (Example 4); assay type: cell-based; conditions: Acinetobacter, without polymyxin B, preliminary MBC, read-out: MBC without PB
Protocol: The plates were incubated for 18-20 hours at 37° C. The MBC was read as the lowest concentration at which colony growth was ca. 90% less than the positive control (i.e. usually where single colonies or no colonies were observed).

A. baumannii A472 [13] = assay: MIC without and with sub-inhibitory polymyxin B (Example 4); assay type: cell-based, Acinetobacter baumannii
A. baumannii A473 [14] = assay: as above; assay type: cell-based, Acinetobacter baumannii
A. baumannii A329 [15] = assay: Preliminary MBC without and with sub-inhibitory polymyxin B (Example 4); assay type: cell-based, Acinetobacter baumannii; conditions: Acinetobacter baumannii, A329, A. baumannii A329, without polymyxin B, 1st experiment, read-out: MBC without PB
A. baumannii A387 [16] = assay: as above; assay type: cell-based, Acinetobacter baumannii; conditions: Acinetobacter baumannii, A387, A. baumannii A387, without polymyxin B, 1st experiment, read-out: MBC without PB
A. baumannii J2 [17] = assay: MIC without and with sub-inhibitory polymyxin B (Example 4); assay type: cell-based, Acinetobacter baumannii; conditions: Acinetobacter baumannii, J2, A. baumannii J2; without polymyxin B; 1st experiment; read-out: MIC without PB
A. baumannii ATCC 19606 [18] = assay: Preliminary MBC without and with sub-inhibitory polymyxin B (Example 4); assay type: cell-based, Acinetobacter baumannii; conditions: Acinetobacter baumannii, ATCC19606, A. baumannii ATCC 19606, without polymyxin B, preliminary MBC, read-out: MBC without PB
B. thailandensis = assay: microbe, parasite or virus in culture; assay type: cell-based, Burkholderia thailandensis; conditions: Burkholderia thailandensis, read-out: MIC90 B. thailandensis
[19] = system: Acinetobacter spp. H064200250; assay: MIC determination for Acinetobacter strains (Example 3); assay type: cell-based, Acinetobacter sp.; conditions: LEV R, CIP R, MRP R, IMP I
[20] = system: 11 strains of A. baumannii and one strain of Acinetobacter sp.; assay: Preliminary MBC without and with sub-inhibitory polymyxin B, whole panel (Example 4; also strains not listed separately); assay type: cell-based; conditions: Acinetobacter baumannii, A. baumannii A14, without polymyxin B, 2nd experiment, read-out: MBC without PB
B. thailandensis E264 = assay: microbe, parasite or virus in culture; assay type: cell-based, Burkholderia thailandensis; conditions: Burkholderia thailandensis, E264, read-out: MIC B. thailandensis E264
[21] = system: S. aureus ATCC 43300 (MRSA, FQ-S); assay: MIC, selected panel of Gram-positive and Gram-negative strains (Example 5); assay type: cell-based, Staphylococcus aureus
E. coli ATCC 25922 = assay: as above; assay type: cell-based, Escherichia coli
A. baumannii ATCC 19606 [22] = assay: as above; assay type: cell-based, Acinetobacter baumannii
S. aureus ATCC 25923 = assay: as above; assay type: cell-based
P. aeruginosa ATCC 27853 = assay: as above; assay type: cell-based
[23] = system: S. aureus BAA-1556 (USA300-Type MRSA, FQ-R); assay: as above; assay type: cell-based, Staphylococcus aureus
[24] = Acinetobacter spp. H064200250, 1st experiment
[25] = Staphylococcus aureus, read-out: MIC S. aureus ATCC 43300 (MRSA, FQ-S)
[26] = Escherichia coli, ATCC25922, read-out: MIC E. coli ATCC 25922
[27] = Acinetobacter baumannii, ATCC19606, read-out: MIC A. baumannii ATCC 19606
[28] = Staphylococcus aureus, ATCC25923, read-out: MIC S. aureus ATCC 25923
[29] = Pseudomonas aeruginosa, ATCC27853, read-out: MIC P. aeruginosa ATCC 27853
[30] = Staphylococcus aureus, read-out: MIC S. aureus BAA-1556 (USA300-Type MRSA, FQ-R)

With `Cc1c(-c2ccc(N)c(F)c2)c(F)cn2c(=O)c(C(=O)O)cc(C3CC3)c12` [Compound 17, 8-(3-fluoro-4-amino-phenyl)-1-cyclopropyl-7-fluoro-9-methyl-4-oxo-quinolizine-3-carboxylic acid] the MBC (A. baumannii A472 [1]) was 4 µg/mL (≈ 10.8 µM), the MIC ([2]; Acinetobacter baumannii, read-out: MIC range without PB 01-10-2008 n = 8, without polymyxin B, 1st experiment, 8 strains) was 1 to 16 µg/mL (≈ 2.7 to 43.2 µM) and the MBC (A. baumannii A473 [3]) was 4 µg/mL (≈ 10.8 µM). It also gave an MBC (A. baumannii J2 [4]) of 4 µg/mL (≈ 10.8 µM), an MBC (A. baumannii A489 [5]) of 4 µg/mL (≈ 10.8 µM) and an MIC (A. baumannii A489 [6]) of 8 µg/mL (≈ 21.6 µM). It also gave an MIC (A. baumannii A401 [7]) of 4 µg/mL (≈ 10.8 µM), an MIC [8, 24] of 8 µg/mL (≈ 21.6 µM) and an MBC (A. baumannii A401 [9]) of 8 µg/mL (≈ 21.6 µM). The MIC (A. baumannii A329 [10]; Acinetobacter baumannii, A329, A. baumannii A329, without polymyxin B, 1st experiment, read-out: MIC without PB) was 8 µg/mL (≈ 21.6 µM), the MIC (A. baumannii A387 [11]; Acinetobacter baumannii, A387, A. baumannii A387, without polymyxin B, 1st experiment, read-out: MIC without PB) was 1 µg/mL (≈ 2.7 µM) and the MBC [12, 24] was 8 µg/mL (≈ 21.6 µM). It also gave an MIC (A. baumannii A472 [13]; Acinetobacter baumannii, A472, A. baumannii A472, without polymyxin B, 1st experiment, read-out: MIC without PB) of 4 µg/mL (≈ 10.8 µM), an MIC (A. baumannii A473 [14]; Acinetobacter baumannii, A473, A. baumannii A473, without polymyxin B, 1st experiment, read-out: MIC without PB) of 4 µg/mL (≈ 10.8 µM) and an MBC (A. baumannii A329 [15]) of 8 µg/mL (≈ 21.6 µM). The MBC (A. baumannii A387 [16]) was 2 µg/mL (≈ 5.4 µM), the MIC (A. baumannii J2 [17]) was 4 µg/mL (≈ 10.8 µM) and the MBC (A. baumannii ATCC 19606 [18]; 1st experiment) was 1 µg/mL (≈ 2.7 µM).
`Cc1c(-c2ccc(CN)s2)ccn2c(=O)c(C(=O)O)cc(C3CC3)c12` [Compound 13] was tested, and the MIC90 (B. thailandensis) was 0.195 µg/mL (≈ 0.55 µM).
In the case of `NCC[C@H](O)C(=O)N[C@@H]1C[C@H](N)[C@@H](O[C@H]2O[C@H](CN)[C@@H](O)[C@H](O)[C@H]2O)[C@H](O)[C@H]1O[C@H]1O[C@H](CO)[C@@H](O)[C@H](N)[C@H]1O` [Amikacin, reference compound], the MIC [19] is reported as 16 µg/mL (≈ 27.3 µM), the “fold greater activity (fold lower MIC) in presence of polymyxin B compared to without polymyxin B” value [2] is reported as “not significantly affected” and the “MIC +[…] PB” value ([2]; A. baumannii NCTC 13301, +[…] polymyxin B, 2nd experiment, visual reading) is reported as 128 µg/mL (≈ 219 µM). For the same compound, the MIC ([8]; Acinetobacter spp. H064200250 (OXA51), 2nd experiment, visual reading) was 8 µg/mL (≈ 13.7 µM), the MIC [8, 24] was 16 µg/mL (≈ 27.3 µM) and the MBC [20] was 16 µg/mL (≈ 27.3 µM). For the same compound, the “MIC +0.06 μg/ml PB” value (A. baumannii A329 [10]; A. baumannii A329, +0.06 μg/ml polymyxin B, 2nd experiment, visual reading) was 128 µg/mL, the “MIC +0.06 μg/ml PB” value (A. baumannii A387 [11]; A. baumannii A387, +0.06 μg/ml polymyxin B, 2nd experiment, visual reading) was 128 µg/mL and the MBC ([12]; Acinetobacter spp. H064200250 (OXA51), 2nd experiment) was 8 µg/mL (≈ 13.7 µM). The MBC [12, 24] was 16 µg/mL (≈ 27.3 µM), the MIC ratio without/with polymyxin B (A. baumannii A472 [13]; A. baumannii A472, ratio MIC without PB to MIC + PB, PB […], 2nd experiment) was no less than 4 µg/mL and the “MIC +0.06 μg/ml PB” value (A. baumannii A473 [14]; A. baumannii A473, +0.06 μg/ml polymyxin B, 2nd experiment, visual reading) was 128 µg/mL. The MBC (A. baumannii ATCC 19606 [18]; 2nd experiment) was 16 µg/mL (≈ 27.3 µM) and the MBC (A. baumannii ATCC 19606 [18]; 1st experiment) was 16 µg/mL (≈ 27.3 µM).
`Cc1c(-c2ccc3c(c2)NC(=O)C(N)C3)ccn2c(=O)c(C(=O)O)cc(C3CC3)c12` (stereo not drawn) [Compound 54, 8-(3-amino-2-oxo-3,4-dihydro-1H-quinolin-7-yl)-1-cyclopropyl-9-methyl-4-oxo-quinolizine-3-carboxylic acid] was tested, and the MIC (B. thailandensis E264) was 4 µg/mL (≈ 9.91 µM), the MIC ([21]; Staphylococcus aureus; read-out: MIC S. aureus ATCC 43300 (MRSA, FQ-S)) was 0.064 µg/mL (≈ 0.159 µM) and the MIC (E. coli ATCC 25922; Escherichia coli, ATCC25922; read-out: MIC E. coli ATCC 25922) was 0.25 µg/mL (≈ 0.62 µM). The MIC (A. baumannii ATCC 19606 [22]; Acinetobacter baumannii, ATCC19606; read-out: MIC A. baumannii ATCC 19606) was 4 µg/mL (≈ 9.91 µM), the MIC (S. aureus ATCC 25923; Staphylococcus aureus, ATCC25923; read-out: MIC S. aureus ATCC 25923) was 0.064 to 0.125 µg/mL (≈ 0.159 to 0.31 µM) and the MIC (P. aeruginosa ATCC 27853; Pseudomonas aeruginosa, ATCC27853; read-out: MIC P. aeruginosa ATCC 27853) was greater than 8 µg/mL. It also gave an MIC ([23]; Staphylococcus aureus; read-out: MIC S. aureus BAA-1556 (USA300-Type MRSA, FQ-R)) of 0.5 µg/mL (≈ 1.24 µM).
Work on `Cc1c(-c2cnc3[nH]ccc3c2)ccn2c(=O)c(C(=O)[O-])cc(C3CC3)c12.[K+]` [Compound 85K salt, potassium 8-(1H-pyrrolo[2,3-b]pyridin-5-yl)-1-cyclopropyl-9-methyl-4-oxo-4H-quinolizine-3-carboxylate] yielded an MIC (B. thailandensis E264) of 0.25 µg/mL, an MIC [21, 25] of no more than 0.004 µg/mL and an MIC (E. coli ATCC 25922; [26]) of 0.032 µg/mL. The MIC (A. baumannii ATCC 19606 [22]; [27]) was 0.064 µg/mL, the MIC (S. aureus ATCC 25923; [28]) was no more than 0.004 µg/mL and the MIC (P. aeruginosa ATCC 27853; [29]) was 1 µg/mL. The MIC [23, 30] was 0.064 to 0.125 µg/mL.
For `Cc1c(-c2ccc(O)c(CN)c2)ccn2c(=O)c(C(=O)[O-])cc(C3CC3)c12.[K+]` [Compound 72K salt, potassium 8-(3-(aminomethyl)-4-hydroxyphenyl)-1-cyclopropyl-9-methyl-4-oxo-4H-quinolizine-3-carboxylate], the MIC (B. thailandensis E264) was 2 µg/mL, the MIC [21, 25] was 0.008 to 0.016 µg/mL and the MIC (E. coli ATCC 25922; [26]) was 0.008 to 0.016 µg/mL. The MIC (A. baumannii ATCC 19606 [22]; [27]) was 0.25 µg/mL, the MIC (S. aureus ATCC 25923; [28]) was 0.008 µg/mL and the MIC (P. aeruginosa ATCC 27853; [29]) was 0.5 µg/mL. It also gave an MIC [23, 30] of 0.25 µg/mL.
